According to patent publication US9969770B2, “Proline compounds as Granzyme B inhibitors” (viDA Therapeutics Inc., priority 2014, dated 2018):

Target: GzmB (Homo sapiens, UniProt P10144)
Experiment: Inhibition of fibronectin cleavage by GzmB
Format: biochemical
Conditions: 20 nM granzyme B, 30° C.; for inhibition at 0.62 µM: 0.62 uM inhibitor, read-out: Percent Inhibition at Inhibitor Concentration 0.62 uM; for inhibition at 5.56 µM: 5.56 uM inhibitor, read-out: Percent Inhibition at Inhibitor Concentration 5.56 uM; for inhibition at 50 µM: 50 uM inhibitor, read-out: Percent Inhibition at Inhibitor Concentration 50 uM
Procedure: Black, 96 well high-binding assay plates (Griener Bio-one) were treated overnight at 4° C. with 40 uL of 8 ug/mL Hilyte Fluor 488 labeled Fibronectin (Cytoskeleton, Inc). After fibronectin coating, plates were washed 3 times in buffer (20 mM Tris-HCl, pH 7.4, 20 mM NaCl) then once with granzyme B assay buffer (50 mM HEPES, pH 7.5, 0.1% CHAPS). After washing, 50 uL of granzyme B assay buffer was added to each fibronectin-coated well. In a separate non-binding 96 well assay plate 5 uL of 20× inhibitor serial dilution stocks were added to 45 uL of 2.22×GzmB mix to establish inhibition (enzyme/inhibitor mixes were all prepared in granzyme B assay buffer and were incubated first at room temperature for 20 minutes, then at 30° C. for another 10 minutes). After incubation, 50 uL of this 2× enzyme/inhibitor mix was added to the corresponding coated well to initiate fibronectin cleavage (20 nM final granzyme B concentration, 8-point inhibitor dilution series starting at 50 uM). The assay was conducted at 30° C. in the TECAN plate reader (TECAN INFINITE® M1000 Pro), which was programmed to monitor the kinetic fluorescence polarization signal (filter set Ex/Em 470 nm/527 nm) with readings taken every minute, for 1 hour. Proteolytic activity was evaluated as the rate of fluorescence enhancement in the parallel emission over the linear range of the reaction. % Inhibition values were calculated from assay controls and the resulting date is shown in Table 6.

GzmB, sequence (P10144 21-247): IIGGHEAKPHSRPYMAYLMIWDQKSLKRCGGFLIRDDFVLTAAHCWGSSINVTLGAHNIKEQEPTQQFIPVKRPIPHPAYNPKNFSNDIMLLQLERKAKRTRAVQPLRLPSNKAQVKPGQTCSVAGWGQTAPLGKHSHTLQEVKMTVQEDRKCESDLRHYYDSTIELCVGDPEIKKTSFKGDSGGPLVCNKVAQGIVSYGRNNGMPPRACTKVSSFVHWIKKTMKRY

Structure (SMILES) | inhibition at 0.62 µM [%] | inhibition at 5.56 µM [%] | inhibition at 50 µM [%]
CC[C@H](C)[C@H](NC(=O)CCC(=O)O)C(=O)NCC(=O)N1C[C@H](Sc2ccccc2)C[C@H]1C(=O)NCc1nn[nH]n1 [Compound C13, 4-(((2S,3S)-1-((2-((2S,4R)-2-(((2H-tetrazol-5-yl)methyl)carbamoyl)-4-(phenylthio)pyrrolidin-1-yl)-2-oxoethyl)amino)-3-methyl-1-oxopentan-2-yl)amino)-4-oxobutanoic acid] | 28 | 58 | 81
CC[C@H](C)[C@H](NC(=O)Cc1ccccc1)C(=O)NCC(=O)N1C[C@H](C2CCCCC2)C[C@H]1C(=O)NCc1nn[nH]n1 [Compound C2, (2S,4S)—N-((2H-tetrazol-5-yl)methyl)-4-cyclohexyl-1-(2-((2S,3S)-3-methyl-2-(2-phenylacetamido)pentanamido)acetyl)pyrrolidine-2-carboxamide] | 40 | 76 | 84
O=C(O)CCC(=O)N[C@H](C(=O)NCC(=O)N1C[C@H](C2CCCCC2)C[C@H]1C(=O)NCc1nn[nH]n1)C1CCCC1 [Compound C5, 4-(((S)-2-((2-((2S,4S)-2-(((2H-tetrazol-5-yl)methyl)carbamoyl)-4-cyclohexylpyrrolidin-1-yl)-2-oxoethyl)amino)-1-cyclopentyl-2-oxoethyl)amino)-4-oxobutanoic acid] | 35 | 70 | 86
